Measured values reported in US20150224211A1, “LEUKOCYTES AS DELIVERY CELLS FOR IMAGING AND DISEASE THERAPY” (priority 2012, published 2015).
Entries after “also recorded” stand apart in the source; their conditions may differ.

Experiments:
[1] = system: 4T1 mouse mammary carcinoma cells; assay: In situ photodynamic therapy (ALA plus luminol) of mouse mammary tumors; type: in vivo; conditions: ALA 100 mg/kg IP prior to luminol 250 mg/kg IP; treatment repeated; four days after PDT
Protocol: 1×10^5 4T1 mouse mammary carcinoma cells (ATCC) were transplanted into a mammary fat pad of a mouse. Four, six, eight and ten days after transplant, luminol (Sigma-Aldrich) was administered intrapertioneally (IP)(250 mg/kg) and the mouse was imaged on an IVIS Lumina imaging apparatus. For in situ photodynamic therapy, the sensitizer alpha aminolevulinic acid (ALA), which is a precursor to protoporphyrin IX (a clinically used photosensitizer), was administered IP (100 mg/kg,) prior to luminol administration. […] Adjunct treatments designed to enhance the PDT effect included the administration of the TGF-β inhibitor LY34947 (1 mg/kg, IP), streptokinase (800 units/mouse, IV), or a combination of LY34947 and streptokinase.

[2] = system: Fusobacterium necrophorum subsp. necrophorum strain 8L1; assay: Efficacy study in mouse model of liver abscesses; type: in vivo, BALB/c mice; conditions: 60 μg CHX in 1.3×10^6 neutrophils
Protocol: In an efficacy study that followed, Fusobacterium necrophorum subsp. necrophorum strain 8L1 was grown overnight from a single colony in PRAS-BHI. 0.3 ml of the starter culture was added to 10 ml of fresh PRAS-BHI broth and grown to an O.D.600 of 0.7. 1 ml of this culture was diluted 1:40 to achieve a final concentration of approximately 4·10^6 CFU/ml. 400 μl of the diluted bacteria was injected intraperitonially into 10 week old BALB/c mice.
Ten-week old BALB/c mice were randomly assigned into 6 groups with 9 mice per group. On day zero, all mice were infected intraperitonially with an infectious dose (approximately 1×10^7 CFU) of F. necrophorum. On day 3, mice were injected (via tail vein) with 100 μl PBS (control), unmodified neutrophils, neutrophils carrying microparticles (an average of 20 cells of M. luteus loaded with chlorhexidine), or neutrophils containing unmodified, heat deactivated M. luteus. The animals were monitored for clinical signs for 5 days after treatment and were euthanized if any clinical signs developed. The mice were euthanized 5 days post treatment and all mice were examined post mortem for abscesses in the livers. Livers of the mice were weighed and homogenized in a tissue homogenizer for 1 min in modified lactate (ML) broth. […]

Compound	tumor response determined by imaging with luciferin [1]	effect against the hepatic disease caused by F. necrophorum [2]
NCC(=O)CCC(=O)O [ALA, 5-aminolevulinic acid]	can attenuate tumors; also recorded: dramatic regression of the tumors	–
[H]/N=C(\N/C(=N/[H])NCCCCCCNC(=N)NC(=N)Nc1ccc(Cl)cc1)Nc1ccc(Cl)cc1 [CHX, chlorhexidine gluconate]	–	effective
